Assay results from patent US8765940B2 (priority 2009, dated 2014).
Like-named read-outs stand apart in the source and are kept apart here.

Tests used:
superoxide release = conditions: cited from earlier work
Class I PI 3-kinases = conditions: cited from earlier work
neutrophil migration = conditions: cited from earlier work
[1] = tested on: mouse model of rheumatoid arthritis; conditions: in vivo; cited from earlier work
[2] = tested on: model of systemic lupus erythematosis; conditions: in vivo; cited from earlier work
PI3Kδ = PI3Kδ (Homo sapiens (Human), UniProt O00329); type: biochemical; conditions: PI3Kδ Alphascreen assay
PI3Kδ, sequence (O00329 whole entry): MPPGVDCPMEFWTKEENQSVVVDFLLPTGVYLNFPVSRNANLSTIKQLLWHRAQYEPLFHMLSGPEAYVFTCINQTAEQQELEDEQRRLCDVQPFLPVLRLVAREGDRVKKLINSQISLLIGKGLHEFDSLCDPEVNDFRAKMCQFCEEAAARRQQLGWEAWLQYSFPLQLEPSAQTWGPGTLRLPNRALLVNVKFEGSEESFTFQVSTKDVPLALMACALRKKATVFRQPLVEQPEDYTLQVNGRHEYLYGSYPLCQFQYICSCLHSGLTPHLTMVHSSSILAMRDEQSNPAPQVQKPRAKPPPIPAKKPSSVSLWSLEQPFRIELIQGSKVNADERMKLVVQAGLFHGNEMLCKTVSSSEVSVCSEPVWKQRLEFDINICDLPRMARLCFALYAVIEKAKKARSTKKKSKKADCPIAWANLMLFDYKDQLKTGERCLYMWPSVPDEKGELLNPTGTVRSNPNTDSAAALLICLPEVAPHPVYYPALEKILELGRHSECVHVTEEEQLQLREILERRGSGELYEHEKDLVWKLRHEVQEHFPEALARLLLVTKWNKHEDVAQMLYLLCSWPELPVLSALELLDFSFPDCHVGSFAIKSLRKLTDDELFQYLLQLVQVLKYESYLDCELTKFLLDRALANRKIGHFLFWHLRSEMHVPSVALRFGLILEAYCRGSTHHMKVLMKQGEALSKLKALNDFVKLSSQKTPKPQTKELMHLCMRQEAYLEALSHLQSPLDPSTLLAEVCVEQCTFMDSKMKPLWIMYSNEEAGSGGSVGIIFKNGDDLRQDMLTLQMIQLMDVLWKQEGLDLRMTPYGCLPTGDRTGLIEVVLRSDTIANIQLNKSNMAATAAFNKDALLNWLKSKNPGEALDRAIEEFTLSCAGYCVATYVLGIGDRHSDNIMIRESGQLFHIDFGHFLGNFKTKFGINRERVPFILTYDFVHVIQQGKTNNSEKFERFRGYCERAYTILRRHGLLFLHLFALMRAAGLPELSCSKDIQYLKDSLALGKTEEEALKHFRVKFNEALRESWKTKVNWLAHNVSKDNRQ
PI3Kδ, sequence (P27986 whole entry partner): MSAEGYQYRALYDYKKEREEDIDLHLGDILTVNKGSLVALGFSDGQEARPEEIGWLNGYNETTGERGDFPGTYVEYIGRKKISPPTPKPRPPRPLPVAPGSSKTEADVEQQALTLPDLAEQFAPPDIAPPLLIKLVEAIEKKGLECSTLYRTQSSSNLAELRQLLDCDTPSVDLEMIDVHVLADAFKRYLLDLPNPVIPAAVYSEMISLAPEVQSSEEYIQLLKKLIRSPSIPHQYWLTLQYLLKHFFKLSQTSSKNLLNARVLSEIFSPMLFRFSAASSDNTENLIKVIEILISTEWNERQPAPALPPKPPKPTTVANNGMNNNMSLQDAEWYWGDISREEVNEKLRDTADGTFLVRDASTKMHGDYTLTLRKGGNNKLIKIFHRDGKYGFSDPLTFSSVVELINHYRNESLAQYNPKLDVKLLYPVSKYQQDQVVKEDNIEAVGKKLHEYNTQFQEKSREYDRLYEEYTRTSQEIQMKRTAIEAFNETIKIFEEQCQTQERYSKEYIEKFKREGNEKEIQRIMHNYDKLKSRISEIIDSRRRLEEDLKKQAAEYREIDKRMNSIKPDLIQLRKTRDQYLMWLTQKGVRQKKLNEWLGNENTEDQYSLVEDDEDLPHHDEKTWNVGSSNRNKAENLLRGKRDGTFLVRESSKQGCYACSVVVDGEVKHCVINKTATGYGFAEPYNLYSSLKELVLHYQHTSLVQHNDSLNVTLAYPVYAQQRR

p110δ = p110δ (Homo sapiens (Human), UniProt O00329); conditions: cited from earlier work
p110δ, sequence (O00329 whole entry, species assumed): as the sequence (O00329 whole entry) above
p110δ, sequence (P27986 whole entry partner, species assumed): as the sequence (P27986 whole entry partner) above

protein kinases = conditions: cited from earlier work
[3] = tested on: ovalbumin-induced airway inflammation; conditions: cited from earlier work

| Ki (PI3Kδ) | SMILES | other results |
| --- | --- | --- |
|  | COC[C@H]1OC(=O)c2coc3c2[C@@]1(C)C1=C(C3=O)[C@@H]2CCC(=O)[C@@]2(C)C[C@H]1OC(C)=O [wortmannin] | superoxide release (superoxide release): block; IC50 (Class I PI 3-kinases; wortmannin, read-out: IC50 values against each of the various Class I PI 3-kinases): 1 to 10 nM; neutrophil migration (neutrophil migration): block |
|  | O=c1cc(N2CCOCC2)oc2c(-c3ccccc3)cccc12 [LY294002] | superoxide release (superoxide release): block; IC50 (Class I PI 3-kinases; LY294002, read-out: IC50 values against each of these PI 3-kinases): ~1000 nM; neutrophil migration (neutrophil migration): block |
|  | O=C1NC(=O)/C(=C\c2ccc3nccnc3c2)S1 [AS 605240] | efficacy in a mouse model of rheumatoid arthritis [1]: efficacious; onset of disease in a model of systemic lupus erythematosis [2]: delay onset of disease |
| 28 nM | COc1cc2nc(C)c(C)c(N3CCS(=O)(=O)c4ccc(N5CCOCC5)cc43)c2cc1Cl [4-(6-chloro-7-methoxy-2,3-dimethyl-4-quinolinyl)-6-(4-morpholinyl)-3,4-dihydro-2H-1,4-benzothiazine 1,1-dioxide] |  |
|  | Cc1ccccc1-n1c(Cn2cnc3c(N)ncnc32)nc2cccc(C)c2c1=O [IC87114] | inhibits p110δ (p110δ): high nanomolar range (triple digit); activity against any protein kinases tested (protein kinases): no activity; inflammation and disease in a murine model of asthma [3]: significantly ameliorate inflammation and disease |
| 14.5 nM | Cc1ncccc1-c1nc2cc(F)ccc2c(N2CC3(CCOCC3)c3ccc(N4CCOCC4)cc32)c1C [1-(7-fluoro-3-methyl-2-(2-methyl-3-pyridinyl)-4-quinolinyl)-6-(4-morpholinyl)-1,2,2′,3′,5′,6′-hexahydrospiro[indole-3,4′-pyran]] |  |
| 68.8 nM | COc1cccc(-c2nc3cc(F)ccc3c(N3CC4(CCOCC4)c4ccc(N5CCOCC5)cc43)c2C)n1 [1-(7-fluoro-2-(6-methoxy-2-pyridinyl)-3-methyl-4-quinolinyl)-6-(4-morpholinyl)-1,2,2′,3′,5′,6′-hexahydrospiro[indole-3,4′-pyran]] |  |
| 13.4 nM | Cc1c(-c2cc(F)cc(F)c2)nc2cnccc2c1N1CC2(CCOCC2)c2ncc(N3CCOCC3)cc21 [1′-(2-(3,5-difluorophenyl)-3-methyl-1,7-naphthyridin-4-yl)-6′-(4-morpholinyl)-1′,2,2′,3,5,6-hexahydrospiro[pyran-4,3′-pyrrolo[3,2-b]pyridine]] |  |
| 21.8 nM | Cc1c(C2(c3ccccc3)CC2)nc2cc(F)cc(F)c2c1N1CC(C)(C)c2ncc(N3CCOCC3)cc21 [4-(3,3-dimethyl-6-(4-morpholinyl)-2,3-dihydro-1H-pyrrolo[3,2-b]pyridin-1-yl)-5,7-difluoro-3-methyl-2-(1-phenylcyclopropyl)quinoline] |  |
| 320 nM | Cc1c(-c2ccccn2)nc2cc(F)ccc2c1N1CC2(CCOCC2)c2ncc(-c3cn[nH]c3)cc21 [1′-(7-fluoro-3-methyl-2-(2-pyridinyl)-4-quinolinyl)-6′-(1H-pyrazol-4-yl)-1′,2,2′,3,5,6-hexahydrospiro[pyran-4,3′-pyrrolo[3,2-b]pyridine]] |  |
| 219 nM | Cc1c(-c2ccccn2)nc2cc(F)ccc2c1N1CC2(CCOCC2)c2nc(C#N)c(N3CCOCC3)cc21 [1′-(7-fluoro-3-methyl-2-(2-pyridinyl)-4-quinolinyl)-6′-(4-morpholinyl)-1′,2,2′,3,5,6-hexahydrospiro[pyran-4,3′-pyrrolo[3,2-b]pyridine]-5′-carbonitrile] |  |
| 6.48 nM | Cc1c(-c2ccccn2)nc2cccc(F)c2c1N1CC2(CCOCC2)c2ncc(N3CCOCC3)cc21 [1′-(5-fluoro-3-methyl-2-(2-pyridinyl)-4-quinolinyl)-6′-(4-morpholinyl)-1′,2,2′,3,5,6-hexahydrospiro[pyran-4,3′-pyrrolo[3,2-b]pyridine]] |  |
| 6.76 nM | Cc1c(-c2ccccn2)nc2cc(F)ccc2c1N1CC(C)(C)c2ncc(N3CCOCC3)cc21 [4-(3,3-dimethyl-6-(4-morpholinyl)-2,3-dihydro-1H-pyrrolo[3,2-b]pyridin-1-yl)-7-fluoro-3-methyl-2-(2-pyridinyl)quinoline] |  |
| 18.2 nM | Cc1c(-c2ccccn2)nc2cc(F)ccc2c1N1CC2(CCOCC2)c2ccc(N3CCOCC3)cc21 [1-(7-fluoro-3-methyl-2-(2-pyridinyl)-4-quinolinyl)-6-(4-morpholinyl)-1,2,2′,3′,5′,6′-hexahydrospiro[indole-3,4′-pyran]] |  |
| 1.52 nM | Cc1c(N2CCOC(C)(C)C2)nc2cc(F)cc(F)c2c1N1CC(C)(C)c2ncc(N3CCOCC3)cc21 [2-(2,2-dimethyl-4-morpholinyl)-4-(3,3-dimethyl-6-(4-morpholinyl)-2,3-dihydro-1H-pyrrolo[3,2-b]pyridin-1-yl)-5,7-difluoro-3-methylquinoline] |  |
| 2.24 nM | Cc1c(N2CC(C)(C)CC2=O)nc2cc(F)cc(F)c2c1N1CC2(CCOCC2)c2ncc(N3CCOCC3)cc21 [1-(5,7-difluoro-3-methyl-4-(6′-(4-morpholinyl)-2,3,5,6-tetrahydrospiro[pyran-4,3′-pyrrolo[3,2-b]pyridin]-1′(2′H)-yl)-2-quinolinyl)-4,4-dimethyl-2-pyrrolidinone] |  |
| 3780 nM | Cc1c(-c2cc(C(F)(F)F)cc(C(F)(F)F)c2)nc2cccc(F)c2c1N1CC(C)(C)c2ccc(N3CCOCC3)cc21 [2-(3,5-bis(trifluoromethyl)phenyl)-4-(3,3-dimethyl-6-(4-morpholinyl)-2,3-dihydro-1H-indol-1-yl)-5-fluoro-3-methylquinoline] |  |
| 6.47 nM | Cc1c(-c2ccccn2)nc2cc(F)ccc2c1N1CC(C)(C)c2ncc(C3=CCOCC3)cc21 [4-(6-(3,6-dihydro-2H-pyran-4-yl)-3,3-dimethyl-2,3-dihydro-1H-pyrrolo[3,2-b]pyridin-1-yl)-7-fluoro-3-methyl-2-(2-pyridinyl)quinoline] |  |
| 4.17 nM | Cc1ccnc(-c2nc3cc(F)ccc3c(N3CC(C)(C)c4ncc(N5CCOCC5)cc43)c2C)c1 [4-(3,3-dimethyl-6-(4-morpholinyl)-2,3-dihydro-1H-pyrrolo[3,2-b]pyridin-1-yl)-7-fluoro-3-methyl-2-(4-methyl-2-pyridinyl)quinoline] |  |
